Three compounds from patent US10975069B2, “Sigma-2 receptor ligand drug conjugates as antitumor compounds, methods of synthesis and uses thereof” (priority 2014, dated 2021) can be followed below.

In assay [1] the test system is PANC-1. In words: Viability assay (CELLTITER-GLO), 24 hours treatment. Type of assay: cell-based, human. Here is the method: (§1) In these experiments, viability assays after 24 hours treatment of human and murine pancreatic cancer cell lines and synovial sarcoma cell lines with SW V-49s or its parent compounds SV119 and Erastin, both singly and in combination, were performed. […] In comparison.
(§2) Cytotoxicity of the drugs was evaluated by CELLTITER-GLO®. Luminescent cell viability assay (Promega, Madison, Wis.). Pancreatic cell lines were plated at a density of 2×10^4/well in white 96 well, clear bottom plates for 24 hours prior to treatment. Drugs were dissolved in DMSO and serially diluted in culture medium to achieve the final concentration of DMSO less than 1%. Cells were then treated for 24 hours and 100 μl of the CELLTITER-GLO® reagent was added to each well. The contents of the plates were mixed using an orbital shaker and subsequently incubated for 10 minutes at room temperature. Luminescence signal was measured using a multi-mode microplate reader (BioTek instruments. Winooski, Vt.). Different drug concentrations were assayed in triplicate. To evaluate the efficacy of the drugs, IC50 of the compounds was calculated on a panel of human and mouse derived pancreatic cancer cell lines in vitro. Cells were treated for 24 hours with SW V-49s, SV119, Erastin, and an equimolar mixture of SV119 and Erastin, then CELLTITER-GLO® viability assay was performed.
Background: ATP-based viability assays read luminescence as a measure of living cells.

Assay [2] relates to BxPC-3. Described as above. The class given is cell-based, human. Here is the method: as §1, §2
In assay [3] the test system is MIA PaCa-2. The assay is described as above. The class given is cell-based, human. Here is the method: as §1, §2
Assay [4] deals with all human and murine pancreatic cancer cell lines tested. In words: Viability assay on panel of pancreatic cancer cell lines. The class given is cell-based. Here is the method:
as §1, §2

Assay [5] deals with AsPC-1. In words: Viability assay (CELLTITER-GLO), 24 hours treatment. The class given is cell-based, human. The procedure:
as §1, §2
(§3) AsPC-1 and SYO-1 cells were plated in 96 well plate overnight then treated with similar concentrations of Erastin for 24 hours. Viability assay was performed after 24 hours. […] (p<0.0001), (FIG. 10).

For assay [6], the system named is SYO-1. Kind of assay: Viability assay, 24 hours treatment, synovial sarcoma cells. The class given is cell-based. Here is the method: as §1
Synovial sarcoma cell lines (FIG. 4F, SYO-1, ME1 deficient) are so sensitive to SW V-49s that it was difficult to measure the minimal drug concentration required to kill 50% of the cancer cells, but the measured IC50 was approx. 1.0 μM.
as §3

For assay [7], the system named is reactive oxygen species (ROS). Kind of assay: Reactive oxygen species (ROS) assay in AsPC-1 cells. Type of assay: cell-based, human. The note with it: 8 μM; for increase in ROS: 30 min, compared to Erastin, SV119 or combination, FIG. 6; for ROS level compared to others: one hour, FIG. 11B. The procedure:
In FIG. 6, results are shown for reactive oxygen species (ROS) assays of Aspc-1 treated with 8 μM 8 μM SW V-49s, 8 μM Erastin, 8 μM SV119, or 8 μM of an equimolar mixture of Erastin and SV119, or a positive control for 30 min. […] Parent compounds SV119 and Erastin, applied to cells either singly or in combination, had no effect at the same concentration.
ROS measurement was performed using Total ROS/Superoxide Detection Kit (Enzo life sciences, Farmingdale, N.Y.) according to the manufacturer's instructions. Briefly. As PC-1 cells were seeded at a density of 2×10^4 cells/well in a black wall clear bottom 96-well plate for 24 hours. Compounds were dissolved in DMSO and diluted in culture medium to achieve a final concentration of DMSO less than 1%. AsPC-1 cells were treated with 8 μM of SV119, Erastin, and equimolar mixture of SV119 and Erastin. ROS assay was performed one hour after treatment. Cells were treated for one hour, then media was removed and 100 μL/well of ROS/Superoxide Detection Mix was added. Fluorescence signal was measured using a multi-mode microplate reader (Bio-Tek, Winooski, Vt.). The assay was performed in 6 replicates.

Where [8] appears, read: 24 hours treatment, SYO-1, ME1 deficient, FIG. 4F, read-out: IC50.

Where two headings read alike, the source gives them in different places. Some results are limits rather than exact numbers.

`COc1ccc(C)cc1NC(=O)OC1C[C@H]2CCC[C@@H](C1)N2CCCCCCN` (stereo partly shown) [SV119, reference compound]: the IC50 in assay [1] (24 hours, mean ± SEM, n ≥ 3, read-out: IC50 ± SEM, PANC-1) is 111 ± 5.3 µM; in assay [2] (24 hours, mean ± SEM, n ≥ 3, read-out: IC50 ± SEM, BxPC-3) it was 54.2 ± 2.6 µM; in assay [3] (24 hours, mean ± SEM, n ≥ 3, read-out: IC50 ± SEM, MiaPaCa-2) it was 94.5 ± 1.9 µM; in assay [4] (24 hours treatment, against all human and murine pancreatic cancer cell lines tested, read-out: IC50) it was more than 54 µM; in assay [5] (24 hours, mean ± SEM, n ≥ 3, read-out: IC50 ± SEM, AsPC-1), 111 ± 8.3 µM; in assay [6] (setting [8]), 6.2 µM. Also, in assay [7], the “increase in ROS” value is “no effect”. For the same compound, the “ROS level compared to others” value in assay [7] is given as “no increase”.
Turning to `CCOc1ccccc1-n1c(C(C)N2CCN(C(=O)COc3ccc(Cl)cc3)CC2)nc2ccccc2c1=O` (stereo not shown) [Erastin], the IC50 in assay [1] (Homo sapiens, PANC-1, 24 h, read-out: IC50 ± SEM, PANC-1) is more than 150 µM; in assay [2] (Homo sapiens, BXPC-3, 24 h, read-out: IC50 ± SEM, BxPC-3) it was more than 150 µM; in assay [3] (Homo sapiens, MIA PaCa-2, 24 h, read-out: IC50 ± SEM, MiaPaCa-2), more than 150 µM; in assay [4] (Pancreatic cancer cell, 24 h, 24 hours treatment, against all human and murine pancreatic cancer cell lines tested) it was more than 100 µM; in assay [4] (Pancreatic cancer cell, 24 h, panel of human and mouse derived pancreatic cancer cell lines), more than 150 µM; in assay [5] (Homo sapiens, ASPC1, 24 h, read-out: IC50 ± SEM, AsPC-1) it was more than 150 µM. Further, the IC50 in assay [6] (24 h) was more than 16 µM. The death of cells was determined as 2% in assay [5] (40 μM, 24 hours, AsPC-1 cells, FIG. 10) and 84% in assay [6] (40 μM, 24 hours, SYO-1 cells, FIG. 10). In addition, the “increase in ROS” value in assay [7] was “no effect”. Further, the “ROS level compared to others” value in assay [7] is on record as “no increase”.
On to `CCOc1ccccc1-n1c(CN2CCN(C(=O)COc3ccc(CNCCCCCCN4C5CCCC4CC(OC(=O)Nc4cc(C)ccc4OC)C5)cc3)CC2)nc2ccccc2c1=O.O=C(O)C(=O)O` (stereo not shown) [SW V-49s], for which the IC50 in assay [1] (Homo sapiens, PANC-1, 24 h, read-out: IC50 concentration) is 4.3 µM; in assay [1] (Homo sapiens, PANC-1, 24 hours, mean ± SEM, n ≥ 3, read-out: IC50 ± SEM, PANC-1) it was 4.1 ± 0.2 µM; in assay [2] (Homo sapiens, BXPC-3, 24 h, read-out: IC50 concentration) it was 2.3 µM; in assay [2] (Homo sapiens, BXPC-3, 24 hours, mean ± SEM, n ≥ 3, read-out: IC50 ± SEM, BxPC-3) it was 2.5 ± 0.1 µM; in assay [3] (Homo sapiens, MIA PaCa-2, 24 h, read-out: IC50 concentration), 2.3 µM; in assay [3] (Homo sapiens, MIA PaCa-2, 24 hours, mean ± SEM, n ≥ 3, read-out: IC50 ± SEM, MiaPaCa-2) it was 3 ± 0.3 µM. The IC50 is 3 µM in assay [5] (Homo sapiens, ASPC1, 24 h, read-out: IC50 concentration); 3.2 ± 0.3 µM in assay [5] (Homo sapiens, ASPC1, 24 hours, mean ± SEM, n ≥ 3, read-out: IC50 ± SEM, AsPC-1); approximately 1 µM in assay [6] (setting [8]). Moreover, the “reduction of IC50 as compared to equimolar mixture of SV119 and Erastin” value in assay [4] (24 hours, pancreatic cancer cell line panel) is recorded as 17-20 fold. Moreover, the “increase in ROS” value in assay [7] came to 50%. For the same compound, the “ROS level compared to others” value in assay [7] is given as 1.5 fold.
